The record followed here is patent US11225505B2, “Antimicrobial polymyxin derivative compounds” (MONASH UNIVERSITY, priority 2015, dated 2022).

Values after ≈ are worked out from the molar mass of the structure shown. Where a SMILES comes first, the peptide text is derived from it. Bridges are numbered along the chain shown (N, C = ends). [ ]: non-standard residue; d: D form. The star is where a group is joined. X43 = O=C(c1ccc(-c2ccc(Cl)cc2)cn1)*; X55 = O=C(c1ccc(-c2ccc(Cl)nc2)cc1)*; X37 = O=C(c1ccc(-c2ccc(Cl)cc2)s1)*; X2 = O=C(c1cc(Cl)cc(Cl)n1)*; X1 = O=C(c1ncc(Cl)cc1Cl)*; Dab = NCC[C@H](N)C(=O)O; Abu = CC[C@H](N)C(=O)O; Dap = NC[C@H](N)C(=O)O

Common to all, as to type: cell-based
In assay [1] the test system is Enterobacter cloacae FADDI-EC006. Conditions: FADDI-EC006. On the procedure:
(§1) MICs of the lipopeptides (trifluoroacetic acid salt, TFA) were determined by broth microdilution in cation-adjusted Mueller-Hinton broth (CAMHB) (Oxoid Australia, Thebarton, SA, Australia) according to the Clinical and Laboratory Standards Institute protocol (Clinical and Laboratory Standards Institute, Performance standards for antimicrobial susceptibility testing; twentyforth informational supplement M100-S24. Wayne, Pa., 2014). Polymyxin B sulphate was employed as the control. Antimicrobial activity of Compounds 1-104 against polymyxin-susceptible Gram-negative bacteria was examined. The following isolates were examined: Pseudomonas aeruginosa ATCC 27853, Pseudomonas aeruginosa FADDI-PA022*, Pseudomonas aeruginosa FADDI-PA01*, Pseudomonas aeruginosa FADDI-PA038*, Acinetobacter baumannii FADDI-AB034*, Acinetobacter baumannii ATCC 17978, Acinetobacter baumannii FADDI-AB030*, Klebsiella pneumoniae FADDI-KP032, Klebsiella pneumoniae FADDI-KP022*, Klebsiella pneumoniae Kp BM1*, Enterobacter cloacae FADDI-EC006, Enterobacter cloacae FADDI-EC001, and Enterobacter cloacae FADDI-EC003 (* Multi drug-resistant clinical isolates, § New Delhi Metallo-beta-lactamase-1 (NDM-1) producing). The results are illustrated in Tables 4 and 5.

The test system of assay [2] is Enterobacter cloacae FADDI-EC001. Particulars: FADDI-EC001. The protocol: as §1
The test system of assay [3] is Pseudomonas aeruginosa FADDI-PA01. Conditions: FADDI-. The protocol:
as §1

Assay [4] concerns Enterobacter cloacae FADDI-EC003. Conditions: FADDI-EC003. On the procedure: as §1
Assay [5] has as its system Acinetobacter baumannii ATCC 17978. Particulars: ATCC 17978. The protocol: as §1
For assay [6], the system named is Klebsiella pneumoniae FADDI-KP032. Particulars: FADDI-KP032. The protocol: as §1
Assay [7] has as its system Pseudomonas aeruginosa FADDI-PA038. Conditions: FADDI-PA038. The protocol: as §1
Assay [8] concerns Acinetobacter baumannii FADDI-AB034. Particulars: FADDI-AB034. The protocol: as §1
The test system of assay [9] is Pseudomonas aeruginosa FADDI-PA022. Conditions: FADDI-PA022. The protocol:
as §1

In assay [10] the test system is Klebsiella pneumoniae FADDI-KP022. Particulars: FADDI-KP022. On the procedure: as §1
Assay [11] relates to Pseudomonas aeruginosa ATCC 27853. Conditions: ATCC 27853. The protocol:
as §1

Assay [12] relates to Klebsiella pneumoniae Kp BM1. Conditions: Kp BM1. The protocol: as §1
For assay [13], the system named is Acinetobacter baumannii FADDI-AB030. Kind of assay: microbe, parasite or virus in culture. Conditions: FADDI-AB030. On the procedure:
as §1, with “Antimicrobial activity of Compounds 1-104 against polymyxin-susceptible Gram-negative bacteria was examined.” left out, “5. […]” for “5.”

Regarding `C[C@@H](O)[C@@H]1NC(=O)[C@H](CCN)NC(=O)[C@H](CCN)NC(=O)[C@H]([C@@H](C)O)NC(=O)[C@@H](Cc2ccccc2)NC(=O)[C@H](CCN)NC(=O)[C@@H](NC(=O)[C@H](CN)NC(=O)[C@@H](NC(=O)[C@H](CCN)NC(=O)c2ncc(Cl)cc2Cl)[C@@H](C)O)CCNC1=O` [Compound 11] (X1-[Dab]T[Dap][Dab][Dab][dF]T[Dab][Dab]T; lactam 4-C), the Minimum inhibitory concentration in assay [1] is under 0.125 µg/mL; in assay [2], under 0.125 µg/mL; in assay [3], 0.5 µg/mL (≈ 0.413 µM); in assay [4], under 0.125 µg/mL; in [5], 1 µg/mL (≈ 0.826 µM); in [6], under 0.125 µg/mL. For the same compound, the Minimum inhibitory concentration in assay [7] is 1 µg/mL (≈ 0.826 µM); in assay [8] it was 1 µg/mL (≈ 0.826 µM); in assay [9] it was 0.25 µg/mL (≈ 0.206 µM); in assay [10], under 0.125 µg/mL; in assay [11] it was 0.25 µg/mL (≈ 0.206 µM); in assay [12], 1 µg/mL (≈ 0.826 µM). This compound showed a Minimum inhibitory concentration in assay [13] of 2 µg/mL (≈ 1.65 µM).

Regarding `CC(C)C[C@H]1NC(=O)[C@H](CCN)NC(=O)[C@@H](NC(=O)[C@H](CN)NC(=O)[C@@H](NC(=O)[C@H](CCN)NC(=O)c2ncc(Cl)cc2Cl)[C@@H](C)O)CCNC(=O)[C@H]([C@@H](C)O)NC(=O)[C@H](CCN)NC(=O)[C@H](CCN)NC(=O)[C@H](C(C)C)NC1=O` [Compound 13] (X1-[Dab]T[Dap][Dab][Dab][dL]V[Dab][Dab]T; lactam 4-C), the Minimum inhibitory concentration in [1] is under 0.125 µg/mL; in assay [2] it was under 0.125 µg/mL; in assay [3], 0.5 µg/mL (≈ 0.425 µM); in assay [4] it was under 0.125 µg/mL; in [5] it was 1 µg/mL (≈ 0.851 µM); in assay [6], 0.25 µg/mL (≈ 0.213 µM). The Minimum inhibitory concentration turned out to be 1 µg/mL (≈ 0.851 µM) in [7]; 2 µg/mL (≈ 1.7 µM) in [8]; 0.5 µg/mL (≈ 0.425 µM) in assay [9]; 0.25 µg/mL (≈ 0.213 µM) in [10]; 0.5 µg/mL (≈ 0.425 µM) in assay [11]; 0.25 µg/mL (≈ 0.213 µM) in assay [12]. The compound further returned a Minimum inhibitory concentration in assay [13] of 0.5 µg/mL (≈ 0.425 µM).

For the compound `CC(C)C[C@H]1NC(=O)[C@H](CCN)NC(=O)[C@@H](NC(=O)[C@H](CN)NC(=O)[C@@H](NC(=O)[C@H](CCN)NC(=O)c2ccc(-c3ccc(Cl)cc3)cn2)[C@@H](C)O)CCNC(=O)[C@H]([C@@H](C)O)NC(=O)[C@H](CCN)NC(=O)[C@H](CCN)NC(=O)[C@H]([C@@H](C)O)NC1=O` [Compound 15] (X43-[Dab]T[Dap][Dab][Dab][dL]T[Dab][Dab]T; lactam 4-C), the Minimum inhibitory concentration in assay [1] was 0.25 µg/mL (≈ 0.205 µM); in assay [2], 0.25 µg/mL (≈ 0.205 µM); in assay [3], 2 µg/mL (≈ 1.64 µM); in assay [4], under 0.125 µg/mL; in assay [5] it was 0.5 µg/mL (≈ 0.41 µM); in assay [6], 0.25 µg/mL (≈ 0.205 µM). Also, the Minimum inhibitory concentration in assay [7] is 1 µg/mL (≈ 0.82 µM); in assay [8], 0.5 µg/mL (≈ 0.41 µM); in [9], 2 µg/mL (≈ 1.64 µM); in [10], under 0.125 µg/mL; in [11], 1 µg/mL (≈ 0.82 µM); in [12] it was 0.5 µg/mL (≈ 0.41 µM). The Minimum inhibitory concentration in [13] was 1 µg/mL (≈ 0.82 µM).

Turning to `CC(C)C[C@H]1NC(=O)[C@H](CCN)NC(=O)[C@@H](NC(=O)[C@H](CN)NC(=O)[C@@H](NC(=O)[C@H](CCN)NC(=O)c2ccc(-c3ccc(Cl)nc3)cc2)[C@@H](C)O)CCNC(=O)[C@H]([C@@H](C)O)NC(=O)[C@H](CCN)NC(=O)[C@H](CCN)NC(=O)[C@H]([C@@H](C)O)NC1=O` [Compound 16] (X55-[Dab]T[Dap][Dab][Dab][dL]T[Dab][Dab]T; lactam 4-C), the Minimum inhibitory concentration in assay [1] is 0.5 µg/mL (≈ 0.41 µM); in assay [2], 0.5 µg/mL (≈ 0.41 µM); in assay [3], 0.5 µg/mL (≈ 0.41 µM); in [4] it was under 0.125 µg/mL; in [5], 2 µg/mL (≈ 1.64 µM); in assay [6], 0.25 µg/mL (≈ 0.205 µM). Moreover, the Minimum inhibitory concentration in assay [7] was 1 µg/mL (≈ 0.82 µM); in assay [8], 4 µg/mL (≈ 3.28 µM); in assay [9], 1 µg/mL (≈ 0.82 µM); in assay [10], under 0.125 µg/mL; in assay [11], 0.5 µg/mL (≈ 0.41 µM); in assay [12], 2 µg/mL (≈ 1.64 µM). For the same compound, the Minimum inhibitory concentration in [13] amounted to 8 µg/mL (≈ 6.56 µM).

For the compound `CC(C)C[C@H]1NC(=O)[C@H](CCN)NC(=O)[C@@H](NC(=O)[C@H](CN)NC(=O)[C@@H](NC(=O)[C@H](CCN)NC(=O)c2ccc(-c3ccc(Cl)cc3)s2)[C@@H](C)O)CCNC(=O)[C@H]([C@@H](C)O)NC(=O)[C@H](CCN)NC(=O)[C@H](CCN)NC(=O)[C@H]([C@@H](C)O)NC1=O` [Compound 17] (X37-[Dab]T[Dap][Dab][Dab][dL]T[Dab][Dab]T; lactam 4-C), the Minimum inhibitory concentration was 0.5 µg/mL (≈ 0.409 µM) in assay [1]; 0.25 µg/mL (≈ 0.204 µM) in assay [2]; 0.5 µg/mL (≈ 0.409 µM) in assay [3]; 1 µg/mL (≈ 0.817 µM) in assay [4]; 2 µg/mL (≈ 1.63 µM) in [5]; 0.5 µg/mL (≈ 0.409 µM) in [6]. The Minimum inhibitory concentration in assay [7] is 1 µg/mL (≈ 0.817 µM); in assay [8], 1 µg/mL (≈ 0.817 µM); in assay [9] it was 1 µg/mL (≈ 0.817 µM); in [10], under 0.125 µg/mL; in assay [11] it was 1 µg/mL (≈ 0.817 µM); in assay [12], 0.5 µg/mL (≈ 0.409 µM). The compound also displayed a Minimum inhibitory concentration in [13] of 0.25 µg/mL (≈ 0.204 µM).

Take `CC[C@@H]1NC(=O)[C@@H](CC(C)C)NC(=O)[C@H](CCN)NC(=O)[C@@H](NC(=O)[C@H](CN)NC(=O)[C@@H](NC(=O)[C@H](CCN)NC(=O)c2cc(Cl)cc(Cl)n2)[C@@H](C)O)CCNC(=O)[C@H]([C@@H](C)O)NC(=O)[C@H](CCN)NC(=O)[C@H](CCN)NC1=O` [Compound 18] (X2-[Dab]T[Dap][Dab][Dab][dL][Abu][Dab][Dab]T; lactam 4-C): the Minimum inhibitory concentration was 0.25 µg/mL (≈ 0.215 µM) in assay [1]; under 0.125 µg/mL in assay [2]; 0.25 µg/mL (≈ 0.215 µM) in assay [3]; 0.5 µg/mL (≈ 0.431 µM) in assay [4]; 1 µg/mL (≈ 0.861 µM) in [5]; 0.25 µg/mL (≈ 0.215 µM) in assay [6]. The Minimum inhibitory concentration in [7] was 1 µg/mL (≈ 0.861 µM); in assay [8], 0.25 µg/mL (≈ 0.215 µM); in assay [9], 0.5 µg/mL (≈ 0.431 µM); in assay [10] it was under 0.125 µg/mL; in assay [11], 0.25 µg/mL (≈ 0.215 µM); in [12] it was 0.25 µg/mL (≈ 0.215 µM). Further, in assay [13], the Minimum inhibitory concentration was 0.5 µg/mL (≈ 0.431 µM).
